# Values of other authors in patent publication US20150087627A1, “COMBINATION OF KINASE INHIBITORS AND USES THEREOF” (Intellikine LLC, priority 2011, published 2015).
# Where a name gives a salt, the structure may show the parent alone. *1 amine or outer side, *2 acyl side, *3 side chain or, on linkers, in order; H or OH if unused. Where a SMILES comes first, the peptide text is derived from it. Bridges are numbered along the chain shown (N, C = ends). Roman numbers before positions name the chains, in order. [ ]: non-standard residue; d: D form. Actinocin(9to1) = Cc1c2oc3c(C)ccc(C(=O)[*:1])c3nc-2c(C(=O)[*:2])c(N)c1=O; NMeV = CN[C@H](C(=O)O)C(C)C; Sar = CNCC(=O)O
# Conditions: clinical use of the marketed drug; cited from earlier work
row,Compound,dose limiting or most common side effect
1,"Cc1c2oc3c(C)ccc(C(=O)N[C@@H]4C(=O)N[C@H](C(C)C)C(=O)N5CCC[C@H]5C(=O)N(C)CC(=O)N(C)[C@@H](C(C)C)C(=O)O[C@@H]4C)c3nc-2c(C(=O)N[C@@H]2C(=O)N[C@H](C(C)C)C(=O)N3CCC[C@H]3C(=O)N(C)CC(=O)N(C)[C@@H](C(C)C)C(=O)O[C@@H]2C)c(N)c1=O [dactinomycin] (I: T[dV]P[Sar][NMeV] / II: T[dV]P[Sar][NMeV]; ester I:1-I:C, II:1-II:C; linker I:N-II:N via Actinocin(9to1))","Nausea, vomiting, and anorexia"
2,"COc1cccc2c1C(=O)c1c(O)c3c(c(O)c1C2=O)C[C@@](O)(C(C)=O)C[C@@H]3O[C@H]1C[C@H](N)[C@H](O)[C@H](C)O1 [daunorubicin, (8S-cis-)-8-acetyl-10-[(3-amino-2,3,6-trideoxy-α-L-lyxo-hexopyranosyl)oxy]-7,8,9,10-tetrahydro-6,8,11-trihydroxy-1-methoxy-5,12 naphthacenedione hydrochloride]",Myelosuppression
3,"CC(=O)O[C@@]12CO[C@@H]1C[C@H](O)[C@@]1(C)C(=O)[C@H](O)C3=C(C)[C@@H](OC(=O)[C@H](O)[C@@H](NC(=O)OC(C)(C)C)c4ccccc4)C[C@@](O)([C@@H](OC(=O)c4ccccc4)[C@H]21)C3(C)C [docetaxel, (2R,3S)—N-carboxy-3-phenylisoserine, N-tert-butyl ester, 13-ester with 5β-20-epoxy-1,2α,4,7β,10β,13α-hexahydroxytax-1-1-en-9-one 4-acetate 2-benzoate, trihydrate]",neutropenia
4,"COc1cccc2c1C(=O)c1c(O)c3c(c(O)c1C2=O)C[C@@](O)(C(=O)CO)C[C@@H]3O[C@H]1C[C@H](N)[C@H](O)[C@H](C)O1.Cl [doxorubicin, (8S,10S)-10-[(3-amino-2,3,6-trideoxy-α-L-lyxo-hexopyranosyl)oxy]-8-glycoloyl, 7,8,9,10-tetrahydro-6,8,11-trihydroxy-1-methoxy-5,12 naphthacenedione hydrochloride]",Myelosuppression
5,"Nc1ccn([C@@H]2O[C@H](CO)[C@@H](O)C2(F)F)c(=O)n1 [gemcitabine, 2′-deoxy-2′,2′-difluorocytidine monohydrochloride (β-isomer)]","Myelosuppression, including leucopenia, thrombocytopenia, and anemia"
6,"CCc1c2c(nc3ccc(OC(=O)N4CCC(N5CCCCC5)CC4)cc13)-c1cc3c(c(=O)n1C2)COC(=O)[C@]3(O)CC [irinotecan HCl, (4S)-4,11-diethyl-4-hydroxy-9-[(4-piperidinopiperidino)carbonyloxy]-1H-pyrano[3′,4′,6,7]indolizino[1,2-b]quinoline-3,14(4H,12H)-dione hydrochloride]","myelosuppression, including neutropenia, and GI effects, including diarrhea"
7,"N[C@@H](Cc1ccc(N(CCCl)CCCl)cc1)C(=O)O [melphalan, 4-[bis(2-chloroethyl)amino]-L-phenylalanine]",Bone marrow suppression
8,"O.Sc1ncnc2nc[nH]c12 [mercaptopurine, 1,7-dihydro-6H-purine-6-thione monohydrate]",Myelosuppression and gastrointestinal mucositis
9,CN(Cc1cnc2nc(N)nc(N)c2n1)c1ccc(C(=O)N[C@@H](CCC(=O)O)C(=O)O)cc1 [methotrexate],"Myelosuppression (leucopenia, thrombocytopenia, and anemia) and mucositis"
10,"COc1cc([C@@H]2c3cc4c(cc3[C@@H](O[C@@H]3O[C@@H]5CO[C@@H](c6cccs6)O[C@H]5[C@H](O)[C@H]3O)[C@H]3COC(=O)[C@H]23)OCO4)cc(OC)c1O [teniposide, 4′-demethyl-epipodophyllotoxin 9[4,6-0-(R)-thenylidene-β-D-glucopyranoside]]",Myelosuppression
11,"Nc1nc2nc[nH]c2c(=S)[nH]1 [thioguanine, 2-amino-1,7-dihydro-6H-purine-6-thione]","Myelosuppression, including leucopenia, thrombocytopenia, and anemia"
